Data on 57 compounds can be found in article PMC12040169 (PLOS Biology, 2025).

By viability is commonly meant a read-out of living cells in per cent, often relative to untreated cells.

Molecules are shown by their SMILES.

The nature of the data set: in vitro. As to conditions: human, hela cells.

`COc1cc(/C=N/NC(=O)c2cccc([N+](=O)[O-])c2)cc(OC)c1O` [CBK262172]: under “% viability”, the viability at 28.5 h, 10 µM was determined as 83.1%.

Turning to `O=C(Nc1ccc(-c2c3ccccc3c(-c3ccc(NC(=O)c4cccc5ccccc45)cc3)c3ccccc23)cc1)c1cccc2ccccc12` [CBK261164], the viability at 28.5 h, 10 µM (% viability) is 93.6%.

On to `O=C1COc2ccccc2CCCCC2(CCCNC2)CN1` (stereo not drawn) [CBK292166], for which the viability at 28.5 h, 10 µM (% viability) came out at 90.5%.

`Cc1ccc(C(=O)O)cc1S(=O)(=O)Nc1ccc(-c2cn3ccsc3n2)cc1` [CBK296688]: under “% viability”, the viability at 28.5 h, 10 µM was found to be 85.2%.

With `O=C(O)c1cccc(NS(=O)(=O)c2cc3ccccc3o2)c1` [CBK200423], under “% viability”, the viability at 28.5 h, 10 µM came out at 97.4%.

For `Cc1noc(C)c1CC(=O)Nc1cccc(CN2CCCCCC2)c1` [CBK281407], the viability at 28.5 h, 10 µM (% viability) stood at 105%.

Regarding `COc1ccccc1C(CNC(=O)Nc1cc(C)on1)N(C)C` (stereo not drawn) [CBK305028], for the setting “% viability”, the viability at 28.5 h, 10 µM was 97.8%.

For `Cc1ccc(C(CC(=O)O)NC(=O)c2ccc(C)c(S(=O)(=O)N3CCCCC3)c2)cc1` (stereo not drawn) [CBK297095], the viability at 28.5 h, 10 µM (% viability) was found to be 82.7%.

Turning to `COCCn1cc(C(=O)N2CCCC(CN(C)C)C2)c2ccccc21` (stereo not drawn) [CBK281431], the viability at 28.5 h, 10 µM was found to be 91.5%.

As to `CC(C)N(Cc1nc(-c2ccccc2)no1)C(=O)CCc1ccccc1` [CBK269867], the viability at 28.5 h, 10 µM (% viability) worked out at 109%.

As to `COc1ccc(CCN(C)Cc2ccncc2)cc1OC` [CBK261861], the viability at 28.5 h, 10 µM (% viability) is 98.4%.

As for `Cc1cc([N+](=O)[O-])ccc1-c1ccc(C(=O)Nc2ccc(O)c(-c3nc4ccccc4s3)c2)o1` [CBK263421], under “% viability”, the viability at 28.5 h, 10 µM worked out at 93%.

As for `Cc1csc(C(Cc2ccsc2)NC(=O)CCn2ccnc2)n1` (stereo not drawn) [CBK285391], the viability at 28.5 h, 10 µM (% viability) was 91.2%.

Take `CCCC(=O)N1CCC(c2nc3ccc(F)cc3cc2N)CC1` [CBK284655]: where the note is “% viability”, the viability at 28.5 h, 10 µM came out at 92.1%.

Regarding `CCc1nc(CN(C(C)=O)C2CCN(CCc3ccccn3)C2)no1` (stereo not drawn) [CBK305372], the viability at 28.5 h, 10 µM (% viability) came to 96.7%.

In the case of `CCOC(=O)c1c(NC(=O)/C=C/C(=O)O)sc2c1CCCCC2` [CBK265299], the viability at 28.5 h, 10 µM (% viability) was determined as 91.5%.

On to `CCOC(=O)C1(C2CCCCC2)CCN(C(=O)C2CCN(C)CC2)CC1` [CBK136948], for which, under “% viability”, the viability at 28.5 h, 10 µM worked out at 92.7%.

In the case of `Cc1nc(-c2ccccc2)sc1CNC(=O)C(C)c1ccc([N+](=O)[O-])cc1` (stereo not drawn) [CBK092364], the viability at 28.5 h, 10 µM (% viability) is 98%.

As for `CCN(CC)C(=O)[C@@H]1CCCN1c1nc(O)cc(C(F)(F)F)n1` [CBK002867], the viability at 28.5 h, 10 µM (% viability) was found to be 92%.

Regarding `O=C(NCCN1CCOCC1)c1cccc(S(=O)(=O)N2CCCC2)c1` [CBK267316], the viability at 28.5 h, 10 µM (% viability) was 98.2%.

As for `O=C(CCC(=O)c1ccccc1)Nc1ccccc1N1CCNCC1` [CBK028284T], the viability at 28.5 h, 10 µM (% viability) worked out at 92.9%.

As for `CN(CCc1cccnc1)CC(=O)Nc1cccc(Cl)c1` [CBK304108], the viability at 28.5 h, 10 µM (% viability) is 93.1%.

Take `Cc1cc(C)n(CC2(CNC(=O)C(c3ccccc3F)N(C)C)CC2)n1` (stereo not drawn) [CBK306920]: the viability at 28.5 h, 10 µM (% viability) was determined as 97.2%.

With `O=C(c1ccc(COc2ccccc2Cl)o1)N1CCN(Cc2ccc3c(c2)OCO3)CC1` [CBK265750C], the viability at 28.5 h, 10 µM (% viability) was 87.3%.

In the case of `CC1CCc2c(sc3ncnc(NCC(=O)N4CCCC4)c23)C1` (stereo not drawn) [CBK306079], for the setting “% viability”, the viability at 28.5 h, 10 µM was found to be 103%.

Consider `OC1(c2cccnc2F)CCN(Cc2c(F)cccc2Cl)CC1` [CBK283148], for which, under “% viability”, the viability at 28.5 h, 10 µM was 106%.

Consider `Nc1ncccc1C(=O)OCc1ccc(-c2ccccc2)cc1` [CBK295353], for which the viability at 28.5 h, 10 µM (% viability) worked out at 94.2%.

As to `O=C(CSCCOc1ccc(Br)cc1)Nc1ccc2c(c1)OCCO2` [CBK296714], where the note is “% viability”, the viability at 28.5 h, 10 µM came to 108%.

As for `O=C(NC1(c2ccccc2)CC1)c1ccc(-n2cnnc2)cc1` [CBK282778], the viability at 28.5 h, 10 µM (% viability) turned out to be 111%.

Take `Cc1cccc(OCC2CCCN(C(=O)Cn3cc(C)cn3)C2)c1` (stereo not drawn) [CBK281531]: the viability at 28.5 h, 10 µM (% viability) stood at 89.9%.

For `CC1CCC2(CC1)N=C(N)Nc1nc3ccccc3n12` (stereo not drawn) [CBK277657], the viability at 28.5 h, 10 µM (% viability) came out at 88.4%.

Turning to `CCOC(=O)c1cccnc1-c1ccc2[nH]ccc2c1` [CBK149238], the viability at 28.5 h, 10 µM (% viability) turned out to be 99.7%.

As for `CNC(=S)N(CCS(=O)(=O)c1ccc(Cl)cc1)Cc1cccs1` [CBK006431], the viability at 28.5 h, 10 µM (% viability) amounted to 97.5%.

On to `NS(=O)(=O)c1ccc(NC2=NC(=O)C(CC(=O)Nc3ccc(Br)cc3)S2)cc1` (stereo not drawn) [CBK266616], for which, where the note is “% viability”, the viability at 28.5 h, 10 µM turned out to be 117%.

As for `CCc1nn(CC(=O)N2CCCC(C)C2)c(=O)c2cc3occc3n12` (stereo not drawn) [CBK283657], under “% viability”, the viability at 28.5 h, 10 µM stood at 79.3%.

In the case of `Cc1nn(C)cc1C(C)NC(=O)c1ccc2c(c1)ncn2C` (stereo not drawn) [CBK281732], the viability at 28.5 h, 10 µM (% viability) was determined as 103%.

Regarding `COc1cccc(Nc2cc(-c3ccco3)ncn2)c1OC` [CBK090727], where the note is “% viability”, the viability at 28.5 h, 10 µM came out at 92.2%.

Turning to `COc1ccc(CCNC(=O)N(CCC#N)C2CCCCC2)cc1` [CBK156375], for the setting “% viability”, the viability at 28.5 h, 10 µM was determined as 100%.

Consider `CC(C)c1nc(-c2cc3ccccc3nc2O)no1` [CBK287964], for which the viability at 28.5 h, 10 µM (% viability) is 112%.

`O=C(Nc1ccc2c(c1)OCO2)c1nccnc1-c1ccc(COc2ccccc2)cc1` [CBK050834]: under “% viability”, the viability at 28.5 h, 10 µM worked out at 109%.

Take `CC1CCN(Cc2ccc(-c3nnn(CC(=O)NCc4ccc(Cl)cc4Cl)n3)cc2)CC1` [CBK144180C]: the viability at 28.5 h, 10 µM (% viability) worked out at 96.5%.

For `Cc1cccc(NC(=O)c2cnc3scc(C)n3c2=O)c1` [CBK287453], where the note is “% viability”, the viability at 28.5 h, 10 µM is 112%.

For `COc1ccccc1CCCN1CCC2(C1)c1[nH]c3ccccc3c1CCN2S(C)(=O)=O` (stereo not drawn) [CBK074095], under “% viability”, the viability at 28.5 h, 10 µM worked out at 113%.

For `O=C(NCC1CCCN1)c1ccccc1Nc1cccc(C(F)(F)F)c1` (stereo not drawn) [CBK115916C], the viability at 28.5 h, 10 µM (% viability) turned out to be 107%.

Turning to `COC(=O)[C@@H]1Cc2ncn(Cc3ccc(Cl)cc3)c2CN1C(=O)c1ccc(C#N)cc1` [CBK288984], where the note is “% viability”, the viability at 28.5 h, 10 µM was 94.5%.

For `Cn1ccnc1Sc1ncccc1C(F)(F)F` [CBK093759], the viability at 28.5 h, 10 µM (% viability) turned out to be 91.2%.

In the case of `CCn1ncc(CN2CCCC(c3cc4cccnc4[nH]3)C2)c1C` (stereo not drawn) [CBK284700], the viability at 28.5 h, 10 µM (% viability) turned out to be 96.9%.

For `O=C(COc1ccccc1/C=C1/NC(=O)NC1=O)Nc1ccccc1` [CBK264620], under “% viability”, the viability at 28.5 h, 10 µM came to 99.3%.

With `O=C(CN1C2CCC1CC(O)(c1ccco1)C2)Nc1ccc(F)cc1` (stereo not drawn) [CBK284062], the viability at 28.5 h, 10 µM (% viability) was 87.6%.

In the case of `Cn1cc(Cl)c(C2CCCCCN2C(=O)c2ccco2)n1` (stereo not drawn) [CBK285105], the viability at 28.5 h, 10 µM (% viability) worked out at 96.5%.

On to `Cc1cc(OCCCNCCO)ccc1Cl` [CBK262230], for which the viability at 28.5 h, 10 µM (% viability) stood at 95.4%.

With `O=C(NC(C(=O)N/N=C/c1ccc(Cl)cc1Cl)c1n[nH]c(=O)c2ccccc12)c1ccccc1` (stereo not drawn) [CBK261118], where the note is “% viability”, the viability at 28.5 h, 10 µM stood at 103%.

Turning to `COc1ccc(CSc2nc(N)c3c4c(sc3n2)CCCC4)cc1` [CBK131876], the viability at 28.5 h, 10 µM (% viability) came out at 85.8%.

With `CNC(=O)c1sc2ccccc2c1C1CCN(C(=O)CCN(C)c2ccc(F)cc2)C1` (stereo not drawn) [CBK285878], where the note is “% viability”, the viability at 28.5 h, 10 µM turned out to be 96.5%.

In the case of `CC(N)C1CCCN(S(=O)(=O)c2ccc(OCc3ncnn3C)cc2)C1` (stereo not drawn) [CBK304105], the viability at 28.5 h, 10 µM (% viability) came out at 114%.

As to `O=C(O)c1ccc(C(=O)O)c2c(C(=O)O)cccc12` [CBK261356], the viability at 28.5 h, 10 µM (% viability) was determined as 82.3%.

As to `Cc1cc(=O)n2c(-c3ccc(NS(=O)(=O)c4cccnc4)cc3)csc2n1` [CBK287837], the viability at 28.5 h, 10 µM (% viability) was 91.6%.
